In article PMC11569172 (Scientific Reports, 2024):
pKd: −log10 of the molar value.

Assays:
STING = STING (Homo sapiens, UniProt Q86WV6); experiment: SPR; format: binding
cGAS = cGAS (Homo sapiens, UniProt Q8N884); experiment: SPR; format: binding
Chain of cGAS (Q8N884 whole entry): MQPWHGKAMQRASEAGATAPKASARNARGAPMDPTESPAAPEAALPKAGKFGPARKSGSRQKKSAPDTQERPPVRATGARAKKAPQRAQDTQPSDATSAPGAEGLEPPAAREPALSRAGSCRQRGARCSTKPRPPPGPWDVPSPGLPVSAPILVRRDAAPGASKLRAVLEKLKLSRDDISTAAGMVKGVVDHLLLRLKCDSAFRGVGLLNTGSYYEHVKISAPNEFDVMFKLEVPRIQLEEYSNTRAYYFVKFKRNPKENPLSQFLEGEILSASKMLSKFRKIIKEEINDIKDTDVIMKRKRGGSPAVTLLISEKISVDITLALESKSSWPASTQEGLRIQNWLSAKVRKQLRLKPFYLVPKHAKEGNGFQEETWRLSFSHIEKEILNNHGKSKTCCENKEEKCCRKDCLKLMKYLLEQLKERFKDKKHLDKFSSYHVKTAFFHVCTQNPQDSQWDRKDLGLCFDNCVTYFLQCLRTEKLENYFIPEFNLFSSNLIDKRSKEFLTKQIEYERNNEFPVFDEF

Chain of STING (Q86WV6 whole entry): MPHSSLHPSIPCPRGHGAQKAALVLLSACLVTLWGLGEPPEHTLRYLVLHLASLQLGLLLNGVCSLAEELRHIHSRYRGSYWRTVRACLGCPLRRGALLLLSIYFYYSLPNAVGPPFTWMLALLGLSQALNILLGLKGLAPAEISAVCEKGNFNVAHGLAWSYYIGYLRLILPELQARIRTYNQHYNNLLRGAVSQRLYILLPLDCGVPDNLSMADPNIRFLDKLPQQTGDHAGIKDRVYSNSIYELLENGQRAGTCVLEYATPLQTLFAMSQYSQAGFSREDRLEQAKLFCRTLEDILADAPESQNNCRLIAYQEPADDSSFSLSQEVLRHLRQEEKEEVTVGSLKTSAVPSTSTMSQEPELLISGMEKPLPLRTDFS

With COc1cc(O)c2c(=O)c(O)c(-c3ccc(O)cc3)oc2c1 [RH, rhamnocitrin] the pKd (STING) was 5.17 and the pKd (cGAS) was 5.59.
